The record followed here is ChEMBL document CHEMBL4706524, “Discovery of sulfonyl hydrazone derivative as a new selective PDE4A and PDE4D inhibitor by lead-optimization approach on the prototype LASSBio-448: In vitro and in vivo preclinical studies” (Eur J Med Chem, 2020).

pEC50, pIC50: −log10 of the molar value.

Data set [1] deals with T1, 3',5'-cyclic-AMP phosphodiesterase 4C (Homo sapiens, UniProt Q08493).
Description: Inhibition of PDE4C (unknown origin)
In data set [2] the target is T2, 3',5'-cyclic-AMP phosphodiesterase 4B (Homo sapiens, UniProt Q07343). The data set can be described thus: Inhibition of PDE4B (unknown origin).
T2 sequence (Q07343 whole entry): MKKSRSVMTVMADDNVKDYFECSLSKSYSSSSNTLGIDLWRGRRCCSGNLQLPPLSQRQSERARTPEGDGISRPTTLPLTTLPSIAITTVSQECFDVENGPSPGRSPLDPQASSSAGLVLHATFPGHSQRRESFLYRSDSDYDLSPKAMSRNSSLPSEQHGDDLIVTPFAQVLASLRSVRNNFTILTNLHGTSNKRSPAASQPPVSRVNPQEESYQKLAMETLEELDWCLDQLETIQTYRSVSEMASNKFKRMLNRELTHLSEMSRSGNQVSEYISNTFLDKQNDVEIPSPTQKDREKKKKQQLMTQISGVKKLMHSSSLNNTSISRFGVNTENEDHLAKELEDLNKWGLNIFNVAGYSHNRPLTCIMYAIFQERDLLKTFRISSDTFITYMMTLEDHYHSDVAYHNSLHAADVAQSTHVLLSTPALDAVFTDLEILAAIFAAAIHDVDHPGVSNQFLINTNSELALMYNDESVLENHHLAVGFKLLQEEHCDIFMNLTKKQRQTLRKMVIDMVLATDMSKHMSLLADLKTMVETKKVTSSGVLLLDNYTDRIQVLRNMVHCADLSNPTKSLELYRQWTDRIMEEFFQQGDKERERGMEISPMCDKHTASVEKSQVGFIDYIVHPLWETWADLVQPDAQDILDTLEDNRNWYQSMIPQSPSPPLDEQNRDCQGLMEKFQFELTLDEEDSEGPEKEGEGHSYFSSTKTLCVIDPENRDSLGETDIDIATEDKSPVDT
In data set [3] the target is 3',5'-cyclic-AMP phosphodiesterase 4A (Homo sapiens, UniProt P27815). The data set can be described thus: Inhibition of PDE4A (unknown origin).
Sequence of 3',5'-cyclic-AMP phosphodiesterase 4A (P27815 whole entry): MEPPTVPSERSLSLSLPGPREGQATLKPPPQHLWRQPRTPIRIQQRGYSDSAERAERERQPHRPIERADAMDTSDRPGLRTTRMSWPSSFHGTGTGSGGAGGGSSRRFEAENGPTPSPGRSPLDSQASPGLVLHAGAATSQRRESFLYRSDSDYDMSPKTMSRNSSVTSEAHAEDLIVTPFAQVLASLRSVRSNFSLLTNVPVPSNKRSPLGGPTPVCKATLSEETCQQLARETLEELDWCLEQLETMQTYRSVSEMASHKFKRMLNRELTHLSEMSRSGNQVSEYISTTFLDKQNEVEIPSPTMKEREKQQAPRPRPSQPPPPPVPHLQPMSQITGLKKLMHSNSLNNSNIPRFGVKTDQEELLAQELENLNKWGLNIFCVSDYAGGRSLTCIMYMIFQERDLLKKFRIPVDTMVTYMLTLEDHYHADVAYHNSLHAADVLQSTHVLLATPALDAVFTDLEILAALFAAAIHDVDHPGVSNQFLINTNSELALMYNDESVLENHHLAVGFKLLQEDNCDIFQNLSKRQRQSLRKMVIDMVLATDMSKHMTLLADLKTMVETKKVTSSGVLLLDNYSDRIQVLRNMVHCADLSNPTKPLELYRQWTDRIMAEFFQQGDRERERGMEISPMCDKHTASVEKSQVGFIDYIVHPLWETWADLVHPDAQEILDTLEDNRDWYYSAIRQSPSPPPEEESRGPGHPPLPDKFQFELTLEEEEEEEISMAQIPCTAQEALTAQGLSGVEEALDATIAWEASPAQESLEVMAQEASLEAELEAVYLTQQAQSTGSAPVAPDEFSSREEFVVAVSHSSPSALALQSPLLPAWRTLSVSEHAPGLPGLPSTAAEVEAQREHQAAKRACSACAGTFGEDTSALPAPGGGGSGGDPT
Data set [4] addresses T3, 3',5'-cyclic-AMP phosphodiesterase 4D (Homo sapiens, UniProt Q08499).
Description: Inhibition of PDE4D (unknown origin)
Data set [5] concerns Mus musculus. Put plainly: Antiinflammatory activity against A/J mouse assessed as decrease in LPS-induced airway hyperreactivity at 25 umol/kg, po treated via gavage for 1 hr before LPS stimulation measured after 24 hrs by whole body plethysmography relative to control. It counts as functional. The following applies: 25 h.
Data set [6] in a line: Chemical stability of the compound in phosphate buffer at pH 7.4 measured upto 120 mins by HPLC-DAD analysis. It counts as physicochemical. The following applies: pH 7.4, 2 h.
For data set [7], the system named is Trachea. Put plainly: […] activity in OVA-sensitized guinea pig-derived trachea assessed as decrease in CCh-induced tracheal tonic contraction in presence of functional epithelium treated with compound after contraction stabilised. The data set is classed as tissue-based. The note with it: Cavia porcellus.
The test system of data set [8] is Trachea. Put plainly: […] activity in non-sensitized guinea pig-derived trachea assessed as decrease in CCh-induced tracheal tonic contraction in absence of functional epithelium treated with compound after contraction stabilised. The data set is classed as tissue-based. The following applies: Cavia porcellus.
Data set [9] concerns Mus musculus. The data set can be described thus: Antiinflammatory activity against A/J mouse assessed as decrease in LPS-induced TNFalpha production in lungs at 6.25 umol/kg, po treated via gavage for 1 hr before LPS stimulation and measured after 24 hrs by ELISA relative to control. The data set is classed as functional. The following applies: 25 h. In general terms: ELISA stands for enzyme-linked immunosorbent assay.

The target in data set [10] is T1, 3',5'-cyclic-AMP phosphodiesterase 4C. The data set can be described thus: Inhibition of human recombinant PDE4C using FAM-cAMP as substrate at 10 uM measured after 1 hr by IMAP TR-FRET assay. (In general: In TR-FRET formats the signal depends on donor and acceptor labels being close together.)
The species named for data set [11] is Homo sapiens. Put plainly: Inhibition of human recombinant PDE4A1A using FAM-cAMP as substrate measured after 1 hr by IMAP TR-FRET assay relative to control.
Data set [12] is described as follows: in vitro. The note with it: PAMPA. A general note: PAMPA measures passive passage across an artificial lipid membrane.
Data set [13] deals with Mus musculus. The data set can be described thus: Antiinflammatory activity against A/J mouse assessed as decrease in LPS-induced airway hyperreactivity at 6.25 umol/kg, po treated via gavage for 1 hr before LPS stimulation measured after 24 hrs by whole body plethysmography relative to control. The data set is classed as functional. The following applies: 25 h.
The species named for data set [14] is Homo sapiens. The data set can be described thus: Inhibition of human recombinant PDE4A1A using FAM-cAMP as substrate at 10 uM measured after 1 hr by IMAP TR-FRET assay.
Data set [15] has as its system Trachea. The data set can be described thus: […] activity in OVA-sensitized guinea pig-derived trachea assessed as decrease in CCh-induced tracheal tonic contraction in absence of functional epithelium treated with compound after contraction stabilised. It counts as tissue-based. The note with it: Cavia porcellus.
Data set [16] concerns Trachea. The data set can be described thus: […] activity in non-sensitized guinea pig-derived trachea assessed as decrease in CCh-induced tracheal tonic contraction in presence of functional epithelium. The note with it: Cavia porcellus. It counts as tissue-based.
The target of data set [17] is T3, 3',5'-cyclic-AMP phosphodiesterase 4D. The data set can be described thus: Inhibition of human recombinant PDE4D3 using FAM-cAMP as substrate at 10 uM measured after 1 hr by IMAP TR-FRET assay.
The conditions of data set [18]: pampa, 8 h.
Data set [19] addresses T2, 3',5'-cyclic-AMP phosphodiesterase 4B. Put plainly: Inhibition of human recombinant PDE4B1 using FAM-cAMP as substrate at 10 uM measured after 1 hr by IMAP TR-FRET assay.
The target in data set [20] is T3, 3',5'-cyclic-AMP phosphodiesterase 4D. Put plainly: Inhibition of human recombinant PDE4D3 using FAM-cAMP as substrate measured after 1 hr by IMAP TR-FRET assay relative to control.
Data set [21] is described as follows: Inhibition of human recombinant PDE4A1A using FAM-cAMP as substrate measured after 1 hr by IMAP TR-FRET assay.
Data set [22] is described as follows: Chemical stability of the compound in KCl/HCl buffer at pH 2.0 measured upto 120 mins by HPLC-DAD analysis. The following applies: pH 2, 2 h.
Data set [23] deals with T3, 3',5'-cyclic-AMP phosphodiesterase 4D. The data set can be described thus: Inhibition of human recombinant PDE4D3 using FAM-cAMP as substrate measured after 1 hr by IMAP TR-FRET assay.
Data set [24] has as its system Mus musculus. Put plainly: Antiinflammatory activity against A/J mouse assessed as decrease in LPS-induced TNFalpha production in lungs at 25 umol/kg, po treated via gavage for 1 hr before LPS stimulation and measured after 24 hrs by ELISA relative to control. It counts as functional. The note with it: 25 h.
Data set [25] can be described thus: in vitro. The note with it: PAMPA. This is another data set of the same source.
Description: Permeability of the compound incubated for 165 mins by PAMPA-BBB assay
Data set [26] relates to Mus musculus. Put plainly: Antiinflammatory activity against A/J mouse assessed as decrease in LPS-induced TNFalpha production in lungs at 3 umol/kg, po treated via gavage for 1 hr before LPS stimulation and measured after 24 hrs by ELISA relative to control. The data set is classed as functional. The following applies: 25 h.
For data set [27], the system named is Mus musculus. The data set can be described thus: Antiinflammatory activity against A/J mouse assessed as decrease in LPS-induced airway hyperreactivity at 3 umol/kg, po treated via gavage for 1 hr before LPS stimulation measured after 24 hrs by whole body plethysmography relative to control. The data set is classed as functional. The following applies: 25 h.

Data set [28] is described as follows: in vitro. The note with it: PAMPA. The source holds these as a separate data set.
Description: Permeability of the compound by PAMPA-TGI assay

T1 sequence (Q08493 whole entry): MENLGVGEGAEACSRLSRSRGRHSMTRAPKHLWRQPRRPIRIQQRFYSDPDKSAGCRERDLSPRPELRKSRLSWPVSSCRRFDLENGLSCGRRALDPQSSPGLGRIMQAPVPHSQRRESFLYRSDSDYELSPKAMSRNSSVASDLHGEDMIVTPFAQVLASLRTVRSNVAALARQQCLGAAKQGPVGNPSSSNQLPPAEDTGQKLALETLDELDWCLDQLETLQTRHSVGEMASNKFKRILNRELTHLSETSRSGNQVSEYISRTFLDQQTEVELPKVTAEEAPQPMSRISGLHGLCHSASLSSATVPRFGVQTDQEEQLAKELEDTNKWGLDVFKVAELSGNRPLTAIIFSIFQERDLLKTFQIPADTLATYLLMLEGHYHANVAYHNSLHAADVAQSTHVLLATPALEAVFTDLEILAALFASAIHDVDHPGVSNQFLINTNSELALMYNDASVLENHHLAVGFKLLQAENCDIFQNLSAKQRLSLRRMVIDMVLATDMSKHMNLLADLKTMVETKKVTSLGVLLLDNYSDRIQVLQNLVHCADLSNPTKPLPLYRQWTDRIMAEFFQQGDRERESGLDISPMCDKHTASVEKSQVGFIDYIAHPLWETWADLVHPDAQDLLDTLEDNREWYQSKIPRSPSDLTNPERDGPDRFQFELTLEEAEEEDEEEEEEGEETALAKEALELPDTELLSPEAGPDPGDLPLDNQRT
T3 sequence (Q08499 whole entry): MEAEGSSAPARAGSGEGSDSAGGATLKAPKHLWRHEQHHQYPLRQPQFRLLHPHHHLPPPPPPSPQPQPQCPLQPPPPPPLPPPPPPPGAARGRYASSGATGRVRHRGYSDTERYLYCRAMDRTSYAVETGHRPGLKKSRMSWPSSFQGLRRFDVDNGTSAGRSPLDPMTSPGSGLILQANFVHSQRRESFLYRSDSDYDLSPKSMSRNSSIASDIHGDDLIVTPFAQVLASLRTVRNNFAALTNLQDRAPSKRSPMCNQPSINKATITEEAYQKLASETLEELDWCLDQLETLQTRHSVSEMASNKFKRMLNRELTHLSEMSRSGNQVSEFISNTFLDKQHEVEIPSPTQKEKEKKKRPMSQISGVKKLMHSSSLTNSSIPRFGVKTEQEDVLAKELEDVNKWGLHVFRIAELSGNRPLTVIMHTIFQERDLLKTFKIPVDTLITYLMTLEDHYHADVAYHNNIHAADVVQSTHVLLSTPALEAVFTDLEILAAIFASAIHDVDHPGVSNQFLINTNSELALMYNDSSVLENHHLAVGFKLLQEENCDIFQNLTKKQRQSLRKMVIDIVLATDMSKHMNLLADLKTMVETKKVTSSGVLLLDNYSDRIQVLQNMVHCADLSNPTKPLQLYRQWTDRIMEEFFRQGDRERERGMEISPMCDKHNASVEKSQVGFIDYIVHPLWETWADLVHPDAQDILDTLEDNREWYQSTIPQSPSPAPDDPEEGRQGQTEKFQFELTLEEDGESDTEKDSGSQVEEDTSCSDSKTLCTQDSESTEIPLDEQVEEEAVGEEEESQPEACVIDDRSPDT

For the compound `C[C@@H](Oc1ccc(CNC(=O)c2cccnc2Oc2ccc3c(c2)OCO3)c(F)c1)C(=O)O`, the negative-log IC50 (pIC50) is 5.41 in data set [1], 6.54 in data set [2], 6.51 in data set [3] and 8.52 in [4].
`COc1ccc(/C=N/N(C)S(=O)(=O)c2cc3c(cc2C)OCO3)cc1OC`: the inhibition in vivo at 25 µmol/kg with Mus musculus [5] was determined as 97%; in the data set on Mus musculus [24], 85.9%. Besides, the Stabilty entry is given as “Stable” in data set [6] and “Unstable” in [22]. For the same compound, the negative-log EC50 (pEC50) in the data set with Trachea [7] is 5.19; in the data set on Trachea [8], 5.09; in the data set with Trachea [15] it was 5.50; in the data set with Trachea [16] it was 5.08. The inhibition in vivo at 6.25 µmol/kg is 48.7% with Mus musculus [9] and 99% with Mus musculus [13]. In addition, the inhibition in data set [10] was determined as 25.5%; in the data set listed under Homo sapiens [14] it was 90.4%; in data set [17], 90.7%; in data set [19], 22.7%. In addition, the values for the Emax (in the data set listed under Homo sapiens [11]; in data set [20]) were 100% and 93%, respectively. This compound also yielded an apparent permeability (Papp) at 8 h in the data set “in vitro [12]” of 13.1 ×10⁻⁶ cm/s. In data set [18], this compound yielded a Drug absorption of 99.3%. Moreover, the pIC50 in data set [21] was 6.30; in data set [23] it was 6.15.
As for `COc1ccc(CCNS(=O)(=O)c2cc3c(cc2C)OCO3)cc1OC`, the Stabilty result in data set [6] and in [22] was “Stable” throughout. Further, the pEC50 in the data set on Trachea [7] is 4.61; with Trachea [8], 4.36; with Trachea [15] it was 4.60; in the data set with Trachea [16] it was 4.53. In addition, the inhibition in data set [10] is 21.3%; in the data set listed under Homo sapiens [14], 11.8%; in [17], less than 5%; in [19], less than 5%. Further, in “in vitro [25]”, the Papp at 2.75 h was 3.46 ×10⁻⁶ cm/s. Further, in data set [21], the pIC50 was 6.15.
`O=C(Nc1c(Cl)cncc1Cl)c1ccc(OC(F)F)c(OCC2CC2)c1` [ROFLUMILAST] gave a Papp at 8 h in “in vitro [12]” of 5.28 ×10⁻⁶ cm/s. Moreover, the Papp at 2.75 h in the data set “in vitro [25]” is 8.05 ×10⁻⁶ cm/s. Besides, the Drug absorption in data set [18] was found to be 86.58%.
`COc1ccc([C@]2(C#N)CC[C@@H](C(=O)O)CC2)cc1OC1CCCC1` [CILOMILAST]: the results for the inhibition in vivo at 3 µmol/kg with Mus musculus [26] and in the data set on Mus musculus [27] were 98.9% and 94%, respectively. For the same compound, the inhibition in data set [10] is 98.5%; in the data set listed under Homo sapiens [14] it was 91.3%; in [17] it was 98.8%; in data set [19] it was 91.3%. Besides, the Emax (in the data set listed under Homo sapiens [11]; in data set [20]) was 99% each time. Further, the Papp at 8 h in “in vitro [12]” was determined as 7.29 ×10⁻⁶ cm/s. Moreover, in data set [18], the Drug absorption is recorded as 93.74%. Besides, the negative-log IC50 (pIC50) in data set [21] is 6.70.
Consider `CC(=O)N1CCN(c2ccc(OCC3COC(Cn4ccnc4)(c4ccc(Cl)cc4Cl)O3)cc2)CC1` (stereo not drawn) [KETOCONAZOLE], for which the Papp at 8 h in “in vitro [12]” came out at 4.93 ×10⁻⁶ cm/s. This compound also came in with a Drug absorption in data set [18] of 84.68%. Also, the apparent permeability coefficient (Papp) in “in vitro [28]” is 3.3 ×10⁻⁶ cm/s.
As to `CC(=O)Oc1ccccc1C(=O)O` [ASPIRIN], the Papp at 8 h in the data set “in vitro [12]” amounted to 1.69 ×10⁻⁶ cm/s. In addition, the Drug absorption in data set [18] is 47.36%. Also, the Papp in the data set “in vitro [28]” is 3.8 ×10⁻⁶ cm/s.
In “in vitro [12]”, `O=C(O)c1cc(/N=N/c2ccc(S(=O)(=O)Nc3ccccn3)cc2)ccc1O` [SULFASALAZINE] gave a Papp at 8 h of 0.45 ×10⁻⁶ cm/s. Further, the Papp in the data set “in vitro [28]” stood at 0.3 ×10⁻⁶ cm/s.

As a reminder, the pIC50 is the IC50 on a negative log10 scale, so that one unit is a factor of ten. Broadly, the inhibition in vivo is the share of the control response that was lost under treatment. What is called pEC50 is the EC50 on a negative log10 scale, so that one unit is a factor of ten. Broadly, the inhibition is the change of the read-out against control, counted positive when it falls. The Emax is the greatest response seen or fitted, relative to the assay's reference. The Papp is a coefficient for how fast a substance crosses the barrier.
